Experiments:
Assay type in all cases: physicochemical
[1] = Physical form at room temperature (isolation and storage)
[2] = Physical stability at room temperature under different relative humidity (RH); settings: for Physical stability, Observation: 20-25° C., 300 mg in uncapped scintillation vial
Experimental: The physical stability of the amorphous 3-(palmitoyl amido)-2-hydroxy-1-(dimethoxytriphenylmethyl hydroxy)-propane lithium salts were tested at room temperature under different relative humidity (RH). 300 mg of amorphous 3-(palmitoyl amido)-2-hydroxy-1-(dimethoxytriphenylmethyl hydroxy)-propane lithium salt was placed in uncapped scintillation vials at 11% RH, 33% RH and 75% RH for days. (Table 1)

[3] = Solubility in organic solvents; settings: most organic solvents, at or below ambient temperature

## CCCCCCCCCCCCCCCC(=O)NCC(COC(c1ccccc1)(c1ccc(OC)cc1)c1ccc(OC)cc1)OC(=O)CCC(=O)[O-].[Li+] (stereo not drawn) [succinylated 3-(palmitoyl amido)-2-hydroxy-1-(dimethoxytriphenylmethyl hydroxy)-propane lithium salt]
[1]
  Physical form: stable solids
[2]; 11% RH, examined by gently shaking once every day
  Physical stability, Observation: Remains free-flowing solids up to 14 days*
[2]; 33% RH, examined by gently shaking once every day
  Physical stability, Observation: Remains free-flowing solids up to 14 days*
[2]; 75% RH
  Physical stability, Observation: Turns to sticky after 30 min
[2]; room temperature, up to 33% relative humidity
  Physical stability: remained solid for an extended period of time
[3]
  Solubility in organic solvents: highly soluble
